These results are taken from ChEMBL document CHEMBL1201862, “PubChem BioAssay data set” (2004).

Test systems include NCI-H226; SF-295; SNB-75; HCT-116; MDA-MB-231; TK-10; HCT-15; UACC-62; RXF 393; OVCAR-3; SR; IGROV-1; OVCAR-5; SF-539; SK-MEL-2; HCC 2998; UACC-257; MOLT-4; U-251; OVCAR-4.
What all share (test): growth of human tumour cells (NCI), 48 h

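Method: 48-hour compound exposure of cells in 96-well plates, five concentrations, linear interpolation of endpoints. GI50: concentration for 50% inhibition of growth.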 The source made the active and inactive calls. No stated cut-off is given here; in the data, active = GI50 up to about 1.1 µM and inactive = higher.

In the case of `CCOC(=O)c1nc2cc(C(F)(F)F)ccc2nc1Nc1ccc(OC)cc1`, the GI50 is > 100 µM (inactive) with NCI-H226; 81.3 µM (inactive) in the experiment on SF-295; 55.6 µM (inactive) in the experiment on SNB-75; 46.1 µM (inactive) in the experiment with HCT-116; 61.7 µM (inactive) in the experiment on MDA-MB-231; > 100 µM (inactive) in the experiment on TK-10. In addition, the GI50 was above 100 µM in the experiment on HCT-15; > 100 µM (inactive) in the experiment on UACC-62; 56.1 µM (inactive) with RXF 393; > 100 µM (inactive) with OVCAR-3; > 100 µM (inactive) in the experiment with SR; > 100 µM (inactive) in the experiment with IGROV-1. In addition, the GI50 with OVCAR-5, in the experiment on SF-539, in the experiment with SK-MEL-2, in the experiment with HCC 2998, with UACC-257 and in the experiment on MOLT-4 was > 100 µM (inactive) throughout.

In the case of `O=C1CSC(c2c[nH]c3ccccc23)N1c1ccc(Cl)cc1Cl` (stereo not given), the GI50 was > 100 µM (inactive) with SF-295; 0.865 µM (active) in the experiment with SNB-75; > 100 µM (inactive) in the experiment on HCT-116; > 100 µM (inactive) in the experiment with MDA-MB-231; > 100 µM (inactive) in the experiment with TK-10; > 100 µM (inactive) in the experiment with U-251. For the same molecule, the GI50 was above 100 µM in the experiment with HCT-15; > 100 µM (inactive) with UACC-62; > 100 µM (inactive) in the experiment with RXF 393; > 100 µM (inactive) with OVCAR-3; > 100 µM (inactive) in the experiment on SR; > 100 µM (inactive) with IGROV-1. Besides, the GI50 in the experiment with OVCAR-5, in the experiment on SF-539, in the experiment with HCC 2998, in the experiment with OVCAR-4, in the experiment with UACC-257 and in the experiment on MOLT-4 was > 100 µM (inactive) in each case.

On to `CC12c3c4cc(Br)cc3Oc3cc(Br)cc(c31)Oc1cc(Br)cc(c12)O4`, for which the GI50 was 11.2 µM (inactive) in the experiment on NCI-H226; > 100 µM (inactive) in the experiment with SF-295; 15.5 µM (inactive) with SNB-75; 17.7 µM (inactive) in the experiment with HCT-116; 17.8 µM (inactive) in the experiment on MDA-MB-231; 41.1 µM (inactive) in the experiment on TK-10. Also, the GI50 is 62.1 µM (inactive) in the experiment on U-251; 41.4 µM in the experiment on HCT-15; 27.7 µM (inactive) with UACC-62; 12.4 µM (inactive) in the experiment with OVCAR-3; 15.1 µM (inactive) in the experiment on SR; 22.8 µM (inactive) in the experiment on IGROV-1. Besides, the GI50 with OVCAR-5 is 55.5 µM (inactive); with SF-539, 34.6 µM (inactive); in the experiment on SK-MEL-2, 23.1 µM (inactive); with HCC 2998 it was 81.5 µM (inactive); in the experiment with OVCAR-4, > 100 µM (inactive); in the experiment on UACC-257, 36.9 µM (inactive). Moreover, in the experiment on MOLT-4, the GI50 is 23.1 µM (inactive).

As to `COC(=O)c1ccc(CN2CCc3c([nH]c4ccccc34)C2CO)o1` (stereo not given), the GI50 in the experiment on SF-295 is > 10 µM (inactive); with SNB-75, > 10 µM (inactive); in the experiment on MDA-MB-231, > 10 µM (inactive); in the experiment with TK-10, > 10 µM (inactive); with HCT-15 it was above 10 µM; in the experiment on UACC-62, > 10 µM (inactive). In addition, the GI50 with RXF 393, with OVCAR-3, with SR, in the experiment with IGROV-1, in the experiment on HCC 2998 and in the experiment on OVCAR-4 was > 10 µM (inactive) in each case. In addition, the GI50 in the experiment with UACC-257 and in the experiment on MOLT-4 was > 10 µM (inactive) throughout.

Turning to `c1ccc(C2=NCCc3cc4c(cc32)OCO4)cc1`, the GI50 in the experiment on SF-295, in the experiment with MDA-MB-231, in the experiment with TK-10, with U-251, in the experiment with UACC-62 and in the experiment on RXF 393 was > 100 µM (inactive) each time. Besides, the GI50 with OVCAR-3, in the experiment on SR, in the experiment on IGROV-1, in the experiment on OVCAR-5, in the experiment on SF-539 and in the experiment on SK-MEL-2 was > 100 µM (inactive) throughout. The GI50 in the experiment with HCC 2998, with OVCAR-4 and with UACC-257 was > 100 µM (inactive) throughout.

Consider `C/C=C1/CN2CCC34c5ccccc5N(C)C23C2CC1C4(C(=O)OC)C(OC(C)=O)O2` (stereo not given), for which the GI50 in the experiment with NCI-H226, in the experiment with SF-295, in the experiment on SNB-75, in the experiment with HCT-116, in the experiment with MDA-MB-231 and in the experiment with TK-10 was > 100 µM (inactive) in each case. Besides, the GI50 with U-251 was > 100 µM (inactive); in the experiment on HCT-15 it was above 100 µM; with UACC-62, > 100 µM (inactive); in the experiment on OVCAR-3 it was > 100 µM (inactive); in the experiment with SR, > 100 µM (inactive); in the experiment with IGROV-1, > 100 µM (inactive). Further, the GI50 in the experiment on OVCAR-5, in the experiment on SF-539, in the experiment with SK-MEL-2, with HCC 2998, in the experiment on OVCAR-4 and in the experiment with UACC-257 was > 100 µM (inactive) each time. In the experiment on MOLT-4, the GI50 is > 100 µM (inactive).

`CC(C)=CCC/C(C)=C/CC/C(C)=C/[C@@H]1[C@@H](CO)[C@]1(C)CC/C=C(\C)CCC=C(C)C`: the GI50 was 19.4 µM (inactive) in the experiment with NCI-H226; 60.8 µM (inactive) in the experiment on SF-295; > 100 µM (inactive) with SNB-75; 31.2 µM (inactive) with HCT-116; 21.6 µM (inactive) with MDA-MB-231; 55.2 µM (inactive) in the experiment with TK-10. The GI50 in the experiment on U-251 is 53.7 µM (inactive); in the experiment on HCT-15, 30.3 µM; with RXF 393, 23.7 µM (inactive); in the experiment on OVCAR-3, 52.5 µM (inactive); with SR it was 19.6 µM (inactive); with IGROV-1 it was 12.5 µM (inactive). In addition, the GI50 with OVCAR-5 was 49.4 µM (inactive); in the experiment on SF-539 it was 22 µM (inactive); in the experiment with SK-MEL-2 it was 43.8 µM (inactive); in the experiment on OVCAR-4, > 100 µM (inactive); with UACC-257 it was 74.3 µM (inactive); in the experiment on MOLT-4 it was 28.9 µM (inactive).

Consider `O=C(O)C(O)c1ccc(F)cc1` (stereo not given), for which the GI50 in the experiment with SF-295, with SNB-75, with HCT-116, with MDA-MB-231, with TK-10 and in the experiment with U-251 was > 100 µM (inactive) throughout. In addition, the GI50 is above 100 µM in the experiment with HCT-15; > 100 µM (inactive) in the experiment on UACC-62; > 100 µM (inactive) with RXF 393; > 100 µM (inactive) in the experiment with OVCAR-3; > 100 µM (inactive) in the experiment with SR; > 100 µM (inactive) in the experiment on IGROV-1. For the same molecule, the GI50 in the experiment on OVCAR-5, in the experiment with SK-MEL-2, in the experiment on OVCAR-4, with UACC-257 and in the experiment with MOLT-4 was > 100 µM (inactive) in each case.

In the case of `OCC(O)COCn1cc(Cn2ncc3c(NCc4ccccc4)ncnc32)nn1` (stereo not given), the GI50 in the experiment on NCI-H226, in the experiment with SF-295, in the experiment with HCT-116, with MDA-MB-231, with TK-10 and in the experiment with U-251 was > 100 µM (inactive) throughout. Besides, the GI50 is above 100 µM with HCT-15; > 100 µM (inactive) in the experiment with UACC-62; > 100 µM (inactive) with OVCAR-3; > 100 µM (inactive) with SR; > 100 µM (inactive) in the experiment on IGROV-1; > 100 µM (inactive) in the experiment with OVCAR-5. The GI50 with SF-539, in the experiment on SK-MEL-2, with HCC 2998, in the experiment on OVCAR-4, with UACC-257 and with MOLT-4 was > 100 µM (inactive) in each case.

On to `CCOC(=O)c1c(N)sc2c1C(C(=O)OCC)CCC2` (stereo not given), for which the GI50 in the experiment on NCI-H226 is > 100 µM (inactive); with SNB-75, > 100 µM (inactive); in the experiment on HCT-116, 79.8 µM (inactive); in the experiment on MDA-MB-231 it was > 100 µM (inactive); with TK-10 it was > 100 µM (inactive); with U-251, > 100 µM (inactive). Further, the GI50 in the experiment on HCT-15 is above 100 µM; in the experiment on UACC-62, > 100 µM (inactive); in the experiment with RXF 393 it was > 100 µM (inactive); with SR it was 66.7 µM (inactive); in the experiment with IGROV-1 it was > 100 µM (inactive); with OVCAR-5 it was > 100 µM (inactive). For the same molecule, the GI50 in the experiment on SK-MEL-2, with HCC 2998, with UACC-257 and with MOLT-4 was > 100 µM (inactive) throughout.

Regarding `O=C(c1cccs1)N(C(=O)N1CCN(c2ccccc2)CC1)S(=O)(=O)c1ccccc1`, the GI50 in the experiment on NCI-H226 is 19.8 µM (inactive); in the experiment on SF-295, 28.1 µM (inactive); in the experiment on SNB-75, 14.2 µM (inactive); with HCT-116, 20.2 µM (inactive); in the experiment on MDA-MB-231, 23.1 µM (inactive); in the experiment with TK-10, 31.8 µM (inactive). Further, the GI50 is 17.5 µM (inactive) in the experiment with U-251; 28.5 µM in the experiment on HCT-15; 17.6 µM (inactive) with UACC-62; 32.2 µM (inactive) in the experiment with OVCAR-3; 21.8 µM (inactive) in the experiment on SR; 22.7 µM (inactive) in the experiment with OVCAR-5. Also, the GI50 in the experiment on SF-539 is 17.9 µM (inactive); with SK-MEL-2 it was 18.7 µM (inactive); in the experiment with HCC 2998, 40.1 µM (inactive); with OVCAR-4, 34.7 µM (inactive); with UACC-257, 23.8 µM (inactive); in the experiment with MOLT-4 it was 20.2 µM (inactive).
